Measurements taken from the NIST ThermoML archive (doi:10.1021/acs.jced.9b00442).
Numbers after ± are expanded uncertainties.

Conditions: 100 kPa, Liquid; for electrical conductivity: Frequency=0.0006 MHz, Alternating current cell with electrodes; for viscosity: Concentric cylinders viscometry; for mass density: Vibrating tube method

C[N+](CCO)(CCO)CCO.O=S(=O)([N-]S(=O)(=O)C(F)(F)F)C(F)(F)F
Conditions | electrical conductivity [S/m] | mass density [kg/m3] | viscosity [mPa·s]
283.15 K | 0.01 ± 0.001 | – | –
288.15 K | 0.017 ± 0.001 | – | 1283.1 ± 73
289.15 K | – | 1574.9 ± 1.2 | –
290.15 K | – | 1574 ± 1.2 | –
291.15 K | – | 1573.1 ± 1.2 | –
292.15 K | – | 1572.2 ± 1.2 | –
293.15 K | 0.025 ± 0.001 | 1571.3 ± 1.2 | 838.5 ± 45
294.15 K | – | 1570.4 ± 1.2 | –
295.15 K | – | 1569.5 ± 1.2 | –
296.15 K | – | 1568.6 ± 1.2 | –
297.15 K | – | 1567.7 ± 1.2 | –
298.15 K | 0.036 ± 0.001 | 1566.8 ± 1.2 | 568.8 ± 29
299.16 K | – | 1565.9 ± 1.2 | –
300.16 K | – | 1565 ± 1.2 | –
301.15 K | – | 1564.1 ± 1.2 | –
302.15 K | – | 1563.2 ± 1.2 | –
303.15 K | 0.05 ± 0.001 | 1562.3 ± 1.2 | 397.8 ± 19
304.15 K | – | 1561.4 ± 1.2 | –
305.15 K | – | 1560.5 ± 1.2 | –
306.15 K | – | 1559.6 ± 1.2 | –
307.15 K | – | 1558.7 ± 1.2 | –
308.15 K | 0.068 ± 0.001 | 1557.8 ± 1.2 | 285.9 ± 13
309.15 K | – | 1556.9 ± 1.2 | –
310.15 K | – | 1556 ± 1.2 | –
311.15 K | – | 1555.1 ± 1.2 | –
312.15 K | – | 1554.2 ± 1.2 | –
313.15 K | 0.09 ± 0.002 | 1553.3 ± 1.2 | 211.1 ± 9.3
314.15 K | – | 1552.4 ± 1.2 | –
315.15 K | – | 1551.5 ± 1.2 | –
316.15 K | – | 1550.6 ± 1.2 | –
317.15 K | – | 1549.7 ± 1.2 | –
318.15 K | 0.117 ± 0.002 | 1548.8 ± 1.2 | 158.7 ± 6.8
319.15 K | – | 1547.9 ± 1.2 | –
320.15 K | – | 1547 ± 1.2 | –
321.15 K | – | 1546.1 ± 1.2 | –
322.15 K | – | 1545.2 ± 1.2 | –
323.15 K | 0.149 ± 0.003 | 1544.3 ± 1.2 | 122 ± 5.1
324.15 K | – | 1543.4 ± 1.2 | –
325.15 K | – | 1542.5 ± 1.2 | –
326.15 K | – | 1541.6 ± 1.2 | –
327.15 K | – | 1540.7 ± 1.2 | –
328.15 K | – | 1539.8 ± 1.2 | 95.6 ± 3.9
329.15 K | – | 1538.9 ± 1.2 | –
330.15 K | – | 1538.1 ± 1.2 | –
331.15 K | – | 1537.2 ± 1.2 | –
332.15 K | – | 1536.3 ± 1.2 | –
333.15 K | – | 1535.4 ± 1.2 | 76.5 ± 3.1
334.15 K | – | 1534.5 ± 1.2 | –
335.16 K | – | 1533.6 ± 1.2 | –
336.15 K | – | 1532.8 ± 1.2 | –
337.15 K | – | 1531.9 ± 1.2 | –
338.15 K | – | 1531 ± 1.2 | 61.7 ± 2.5
339.15 K | – | 1530.1 ± 1.2 | –
340.15 K | – | 1529.2 ± 1.2 | –
341.15 K | – | 1528.4 ± 1.2 | –
342.15 K | – | 1527.5 ± 1.2 | –
343.15 K | – | 1526.6 ± 1.2 | 50.6 ± 2
344.15 K | – | 1525.8 ± 1.2 | –
345.15 K | – | 1524.9 ± 1.2 | –
346.15 K | – | 1524 ± 1.2 | –
347.15 K | – | 1523.1 ± 1.2 | –
348.15 K | – | 1522.3 ± 1.2 | 42.1 ± 1.7
349.15 K | – | 1521.4 ± 1.2 | –
350.15 K | – | 1520.5 ± 1.2 | –
351.15 K | – | 1519.7 ± 1.2 | –
352.15 K | – | 1518.8 ± 1.2 | –
353.15 K | – | 1518 ± 1.2 | 35.6 ± 1.4
354.15 K | – | 1517.1 ± 1.2 | –
355.15 K | – | 1516.2 ± 1.2 | –
356.15 K | – | 1515.4 ± 1.2 | –
357.15 K | – | 1514.5 ± 1.2 | –
358.15 K | – | 1513.6 ± 1.2 | 30.1 ± 1.2
359.15 K | – | 1512.8 ± 1.2 | –
360.15 K | – | 1511.9 ± 1.2 | –
361.15 K | – | 1511.1 ± 1.2 | –
362.16 K | – | 1510.2 ± 1.2 | –
363.15 K | – | 1509.3 ± 1.2 | 25.8 ± 1

CC[N+](CCO)(CCO)CCO.O=S(=O)([N-]S(=O)(=O)C(F)(F)F)C(F)(F)F
Conditions | electrical conductivity [S/m] | mass density [kg/m3] | viscosity [mPa·s]
283.15 K | 0.007 ± 0.001 | – | –
288.15 K | 0.011 ± 0.001 | 1538.5 ± 1.2 | 2041.7 ± 120
289.15 K | – | 1537.6 ± 1.2 | –
290.15 K | – | 1536.7 ± 1.2 | –
291.15 K | – | 1535.9 ± 1.2 | –
292.15 K | – | 1535 ± 1.2 | –
293.15 K | 0.018 ± 0.001 | 1534.1 ± 1.2 | 1275.4 ± 72
294.15 K | – | 1533.2 ± 1.2 | –
295.15 K | – | 1532.4 ± 1.2 | –
296.15 K | – | 1531.5 ± 1.2 | –
297.15 K | – | 1530.6 ± 1.2 | –
298.15 K | 0.026 ± 0.001 | 1529.7 ± 1.2 | 840.6 ± 45
299.16 K | – | 1528.9 ± 1.2 | –
300.16 K | – | 1528 ± 1.2 | –
301.15 K | – | 1527.1 ± 1.2 | –
302.15 K | – | 1526.2 ± 1.2 | –
303.15 K | 0.037 ± 0.001 | 1525.4 ± 1.2 | 569.4 ± 29
304.15 K | – | 1524.5 ± 1.2 | –
305.15 K | – | 1523.6 ± 1.2 | –
306.15 K | – | 1522.7 ± 1.2 | –
307.15 K | – | 1521.9 ± 1.2 | –
308.15 K | 0.052 ± 0.001 | 1521 ± 1.2 | 397.8 ± 19
309.15 K | – | 1520.1 ± 1.2 | –
310.15 K | – | 1519.2 ± 1.2 | –
311.15 K | – | 1518.4 ± 1.2 | –
312.15 K | – | 1517.5 ± 1.2 | –
313.15 K | 0.07 ± 0.002 | 1516.6 ± 1.2 | 280.3 ± 13
314.15 K | – | 1515.7 ± 1.2 | –
315.15 K | – | 1514.9 ± 1.2 | –
316.15 K | – | 1514 ± 1.2 | –
317.15 K | – | 1513.1 ± 1.2 | –
318.15 K | 0.092 ± 0.002 | 1512.2 ± 1.2 | 210.5 ± 9.3
319.15 K | – | 1511.3 ± 1.2 | –
320.15 K | – | 1510.5 ± 1.2 | –
321.15 K | – | 1509.6 ± 1.2 | –
322.15 K | – | 1508.7 ± 1.2 | –
323.15 K | 0.118 ± 0.002 | 1507.8 ± 1.2 | 158.6 ± 6.8
324.15 K | – | 1507 ± 1.2 | –
325.15 K | – | 1506.1 ± 1.2 | –
326.15 K | – | 1505.2 ± 1.2 | –
327.15 K | – | 1504.4 ± 1.2 | –
328.15 K | – | 1503.5 ± 1.2 | 122 ± 5.1
329.15 K | – | 1502.6 ± 1.2 | –
330.15 K | – | 1501.8 ± 1.2 | –
331.15 K | – | 1500.9 ± 1.2 | –
332.15 K | – | 1500 ± 1.2 | –
333.15 K | – | 1499.2 ± 1.2 | 94.7 ± 3.9
334.15 K | – | 1498.3 ± 1.2 | –
335.16 K | – | 1497.4 ± 1.2 | –
336.15 K | – | 1496.6 ± 1.2 | –
337.15 K | – | 1495.7 ± 1.2 | –
338.15 K | – | 1494.9 ± 1.2 | 76.1 ± 3.1
339.15 K | – | 1494 ± 1.2 | –
340.15 K | – | 1493.2 ± 1.2 | –
341.15 K | – | 1492.3 ± 1.2 | –
342.15 K | – | 1491.4 ± 1.2 | –
343.15 K | – | 1490.6 ± 1.2 | 61.6 ± 2.5
344.15 K | – | 1489.7 ± 1.2 | –
345.15 K | – | 1488.9 ± 1.2 | –
346.15 K | – | 1488 ± 1.2 | –
347.15 K | – | 1487.2 ± 1.2 | –
348.15 K | – | 1486.3 ± 1.2 | 50.6 ± 2
349.15 K | – | 1485.5 ± 1.2 | –
350.15 K | – | 1484.6 ± 1.2 | –
351.15 K | – | 1483.8 ± 1.2 | –
352.15 K | – | 1483 ± 1.2 | –
353.15 K | – | 1482.1 ± 1.2 | 41.9 ± 1.7
354.15 K | – | 1481.3 ± 1.2 | –
355.15 K | – | 1480.4 ± 1.2 | –
356.15 K | – | 1479.6 ± 1.2 | –
357.15 K | – | 1478.7 ± 1.2 | –
358.15 K | – | 1477.9 ± 1.2 | 35.3 ± 1.4
359.15 K | – | 1477.1 ± 1.2 | –
360.15 K | – | 1476.2 ± 1.2 | –
361.15 K | – | 1475.4 ± 1.2 | –
362.16 K | – | 1474.6 ± 1.2 | –
363.15 K | – | 1473.7 ± 1.2 | 30 ± 1.2
